According to patent US10502741B2, “Means and methods for detecting activated MALT1” (Helmholtz Zentrum München Deutsches Forschungszentrum für …, priority 2014, dated 2019):
Primed or numbered codes have the meaning given here. The star is where a group is joined. FITC = O=C1OC2(c3ccc(O)cc3Oc3cc(O)ccc32)c2ccc(NC(=S)*)cc21; AOMK = acyloxymethyl ketone C-terminal warhead; AOMK″ = acyloxymethyl ketone; BODIPY = not defined here

Experiments:
cathepsin B [1] = target: T1, cathepsin B (Homo sapiens, UniProt P07858); test: Labeling with diagnostic inhibitor in cell extracts (gel-based, fluorescence scan): about 30 kDa cathepsin B band; parameters: endogenous in cells; host or cells: Jurkat T cells; HBL1 and other DLBCL cell lines; settings: for effect of inhibitor pretreatment on the band below 34 kDa (cathepsin B) labeled by probe 5: Jurkat T cells, 10 μM inhibitor
Method: (§1) Jurkat T cells were cultured in standard RPMI medium containing 10% FCS, 100 U/ml Penicillin/Streptomycin and 2 mM Glutamin. DNA transfection of 6 μg DNA in 8×10^6 Jurkat T cells was performed by electroporation in a GenePulser Xcell (BioRad) with a 220 Volt pulse. For siRNA experiments, Jurkat T cells were transfected with 100 nM siRNA and Atufect transfection reagent (Silence Therapeutics, Berlin). Jurkat T cells were stimulated either with 200 ng/ml PMA (phorbol 12-myristate 13-acetate) and 300 ng/ml Ionomycin (both Calbiochem) or CD3/CD28 antibody co-ligation (human CD3: 1 μg/ml; human CD28: 4 μg/ml; mouse IgG1: 2 μg/ml; mouse IgG2a: 2 μg/ml; BD Biosciences). DLBCL cell lines (HBL1, TMD8, OCI-Ly3, U2932, RIVA, BJAB, Su-DHL-4 and Su-DHL-6) were cultured in standard RPMI medium containing 20% FCS, 100 U/ml Penicillin/Streptomycin and 2 mM Glutamin. OCI-Ly10 cell line was cultured in IMDM containing 20% human serum, 100 U/ml Penicillin/Streptomycin, 2 U/ml heparine, 50 μM β-mercaptoethanol. Inhibitors 10 μM (z-VRPR-FMK, Mepazine, Thioridazine, CA-074Me) were added to the cells in media for 1 h, prior to stimulation and labeling with diagnostic MALT1 inhibitor.
(§2) Jurkat T cells (1-2×10^7), primary human PBMCs or primary human T cells (0.25 or 1×10^7) were lysed in 150 μl co-IP buffer without protease inhibitors. DLBCL (3×10^7) were lysed in 250 μl buffer. After centrifugation (14000 rpm, 10 min, 4° C.), 100 μl extract (DLBCL: 200 μl) was stained with probe 5 or probe 6 (3 μM end) for 50 min at 29° C., mixed with 4× loading dye and boiled.

active MALT1 [2] = target: T2, active MALT1 (Homo sapiens, UniProt Q9UDY8); test: ELISA-based assay (MALT1 ELASA) on streptavidin-coated plates with MALT1 antibody detection; assay type: cell-based; settings: for effect of inhibitor on active MALT1 signal in DLBCL cells: inhibitor-treated (10 μM) DLBCL cells
T2 construct: endogenous in cells; host or cells: Jurkat T cells, primary human PBMCs and T cells, DLBCL cell lines (HBL1, TMD8, OCI-Ly3, OCI-Ly10, U2932, RIVA, BJAB, Su-DHL-4, Su-DHL-6)
T2 sequence (Q9UDY8 1-824): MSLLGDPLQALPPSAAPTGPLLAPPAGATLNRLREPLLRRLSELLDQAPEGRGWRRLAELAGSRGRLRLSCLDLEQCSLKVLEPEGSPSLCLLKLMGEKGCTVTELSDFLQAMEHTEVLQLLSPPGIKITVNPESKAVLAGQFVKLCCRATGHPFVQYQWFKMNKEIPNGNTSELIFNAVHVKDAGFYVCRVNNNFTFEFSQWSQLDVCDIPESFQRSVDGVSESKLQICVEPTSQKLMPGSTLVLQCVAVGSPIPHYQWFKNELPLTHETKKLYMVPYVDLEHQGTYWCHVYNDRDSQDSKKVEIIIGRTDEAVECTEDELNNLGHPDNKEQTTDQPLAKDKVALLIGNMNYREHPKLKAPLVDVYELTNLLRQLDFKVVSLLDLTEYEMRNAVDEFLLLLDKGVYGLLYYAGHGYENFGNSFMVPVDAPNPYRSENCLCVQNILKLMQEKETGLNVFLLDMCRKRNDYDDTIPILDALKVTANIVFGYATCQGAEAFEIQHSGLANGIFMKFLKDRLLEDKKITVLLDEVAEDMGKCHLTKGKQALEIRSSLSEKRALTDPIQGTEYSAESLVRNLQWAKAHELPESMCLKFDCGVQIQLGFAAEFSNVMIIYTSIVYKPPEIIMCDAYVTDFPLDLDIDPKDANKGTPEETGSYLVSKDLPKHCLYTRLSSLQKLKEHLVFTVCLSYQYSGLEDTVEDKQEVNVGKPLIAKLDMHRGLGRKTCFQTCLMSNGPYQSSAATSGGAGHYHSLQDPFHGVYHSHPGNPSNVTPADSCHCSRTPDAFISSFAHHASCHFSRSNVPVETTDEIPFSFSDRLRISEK
Method: as §1
Untreated DLBCL (1×10^7), primary T cells (0.25×10^7) or Jurkat T cells (0.2-1×10^7) (stimulated or not) were lysed in 300 μl co-IP buffer without protease inhibitors, centrifuged, incubated with probe 7 (concentration as depicted) for 1 h at RT, then transferred to streptavidin-coated plates (96 well, clear) and incubated o/n at 4° C. After blocking with 2% BSA in PBS-T, detection was performed by incubation with MALT1 primary antibody (1 h, RT) and HRP-coupled secondary antibody (1 h, RT). […] was determined after TMB substrate incubation in a photometer (Bio-Tek).

active MALT1 [3] = target: T2, active MALT1; test: Labeling with diagnostic inhibitor in cell extracts (gel-based, fluorescence scan): active MALT1 band; settings: for effect of inhibitor pretreatment on probe 5 labeling of active MALT1: Jurkat T cells, 10 μM inhibitor before stimulation; for selectivity / background of probe labeling in extracts: Jurkat T cell extracts; for detection of endogenous active MALT1-probe complexes: Jurkat T cells stimulated or not, whole cell lysates
Method: as §1, §2

MALT1 = target: T3, MALT1 (Homo sapiens, UniProt Q9UDY8); test: MALT1 in vitro cleavage assay using fluorescent substrate; assay type: biochemical
T3 construct: GST
T3 sequence (Q9UDY8 1-824): T2 sequence (Q9UDY8 1-824)
Method: (§3) C) Impact of indicated compounds on MALT1, Caspase8 and cathepsin B was tested in in vitro cleavage assays using fluorescent substrates. Results and SD from three independent experiments are shown.
Preferably, MALT1 activity is determined in a MALT1 cleavage assay. […] The assay may be performed in cleavage buffer comprising for example 50 mM MES, 1 M sodium citrate pH 7, 150 mM NaCl, 10% sucrose, 0.1% chaps, 10 mM DTT. Catalytically active MALT1 cleaves the substrate and an increase of AMC fluorescence can be measured.

active MALT1 [4] = target: T2, active MALT1; test: Probe 7-pulldown with streptavidin beads and western blot; assay type: cell-based
Method: as §1
Untreated DLBCL (1-2×10^7) or Jurkat T cells (stimulated with PMA/Ionomycin or CD3/28 or left untreated; 1-2×10^7), were lysed in 500 μl co-IP buffer without protease inhibitors, centrifuged, incubated with probe 7 (concentration as depicted) for 1 h at RT then incubated with streptavidin beads for 2 h at 4° C. Precipitate was washed, analysed by SDS-PAGE and western blot.

cathepsin B [5] = target: T1, cathepsin B; test: Cathepsin B cleavage assay (zRR-AMC substrate); assay type: biochemical; parameters: purchased BioVision; settings: 0.2 ng cathepsin B, 1 mM zRR-AMC, 2 h at 30° C.
Method: as §3
0.2 ng cathepsin B together with probe 5, z-VRPR-FMK (SEQ ID No. 6), mepazine or CA-074 was incubated with 1 mM zRR-AMC substrate for 2 h at 30° C. Assay was performed in 0.1 M sodium acetate pH 5.5, 10 mM DTT and 0.1 mM EDTA. Again, increase of AMC fluorescence is measured in a Synergy 2 Microplate Reader (Biotek).

[6] = HBL1 cells, inhibitors 10 μM each

Compound: CCCNC(=O)[C@H]1O[C@@H]1C(=O)N[C@H](C(=O)N1CCC[C@H]1C(=O)OC)[C@@H](C)CC [CA-074Me]
- effect of inhibitor on the about 30 kDa cathepsin B signal labeled by probe 6 (cathepsin B [1]; [6]): sensitive
- effect of inhibitor pretreatment on the band below 34 kDa (cathepsin B) labeled by probe 5 (cathepsin B [1]): completely abolished detection
- effect of inhibitor on active MALT1 signal in DLBCL cells (active MALT1 [2]; probe 7): resistant
- effect of inhibitor pretreatment on probe 5 labeling of active MALT1 (active MALT1 [3]): inducible MALT1 labeling was unaffected

Compound: CCCNC(=O)[C@H]1O[C@@H]1C(=O)N[C@H](C(=O)N1CCC[C@H]1C(=O)O)[C@@H](C)CC [CA-074]
- inhibition of MALT1 protease activity in vitro (MALT1): neither the non-competitive MALT1 inhibitor mepazine, nor the irreversible cathepsin B specific inhibitor CA-074 showed any cross-inhibition

Compound: C=CC(=O)N1CCC[C@@H](n2nc(-c3ccc(Oc4ccccc4)cc3)c3c(N)ncnc32)C1 [Ibrutinib]
- reduction of MALT1 activity (active MALT1 [2]; 0.5 nM, ABC DLBCL cells): 50-60%

Compound: CN1CCC[C@H](CN2c3ccccc3Sc3ccccc32)C1 [S-mepazine, 10-{[(3S)-1-methylpiperidin-3-yl]methyl}-10H-phenothiazine]
- cellular MALT1 inhibition, inhibitor profiling (active MALT1 [2]; ABC DLBCL cell line OCI-Ly3, increasing concentrations): slightly more potent
- concentrations at which MALT1 was inhibited (active MALT1 [2]; all ABC DLBCL cell lines): 0.3 to 10 µM

Compound: CN1CCCC(CN2c3ccccc3Sc3ccccc32)C1 (centres unmarked) [mepazine, 10-[(1-methylpiperidin-3-yl)methyl]-10H-phenothiazine]
- effect of inhibitor on formation of MALT1-probe 7 complexes (active MALT1 [4]; Jurkat T cells pretreated with 10 μM inhibitors, 0.1 μM probe 7): blocked
- effect of inhibitor pretreatment on the band below 34 kDa (cathepsin B) labeled by probe 5 (cathepsin B [1]): unaffected
- effect of inhibitor on active MALT1 signal in DLBCL cells (active MALT1 [2]; probe 7): strongly reduced
- effect of inhibitor on probe 6 labeling of active MALT1 (active MALT1 [3]; [6]): sensitivity
- effect of inhibitor pretreatment on probe 5 labeling of active MALT1 (active MALT1 [3]): prevents binding of diagnostic MALT1-inhibitor
- inhibition of cathepsin B activity in vitro (cathepsin B [5]): neither the non-competitive MALT1 inhibitor mepazine, nor the irreversible cathepsin B specific inhibitor CA-074 showed any cross-inhibition

Compound: CSc1ccc2c(c1)N(CCC1CCCCN1C)c1ccccc1S2 (centres unmarked) [thioridazine, 10-[2-(1-methylpiperidin-2-yl)ethyl]-2-(methylthio)phenothiazine]
- effect of inhibitor pretreatment on the band below 34 kDa (cathepsin B) labeled by probe 5 (cathepsin B [1]): unaffected
- effect of inhibitor pretreatment on probe 5 labeling of active MALT1 (active MALT1 [3]): prevents binding of diagnostic MALT1-inhibitor

Compound: Ac-Lys(biotin)-LRSR-AOMK [probe 7]
- detection of MALT1-probe 7 complexes after pulldown (active MALT1 [4]; Jurkat T cells, P/I stimulated or not): exclusively detected in extracts of P/I stimulated Jurkat T cells
- probe concentration sufficient to completely remove active MALT1 from the extracts (active MALT1 [4]; extracts of stimulated T cells, supernatant checked with probe 6): 100 nM
- constitutively active MALT1 after pulldown in DLBCL cells (active MALT1 [4]; untreated ABC and GCB DLBCL cells, western blot): exclusively in ABC, but not in GCB DLBCL cells
- probe concentration sufficient to obtain a robust increase in active MALT1 (active MALT1 [2]; 2×10^6 Jurkat T cells stimulated or not): ≤ 10 nM
- MALT1 activity in ABC versus GCB DLBCL cells, ELISA (active MALT1 [2]; DLBCL cell lines, probe 7): significant increase in MALT1 activity in ABC DLBCL cells when compared to GCB DLBCL cells
- MALT1 binding to streptavidin-coated plates (active MALT1 [2]; Jurkat T cells, stimulated or not): only detected in P/I or CD3/CD28 stimulated Jurkat T cells
- active MALT1 in stimulated primary T cells, ELISA (active MALT1 [2]; primary human T cells, 0.1 μM probe 7): robust induction of active MALT1

Compound: BODIPY-ALVSR-AOMK ({BODIPY}-ALVSR-{AOMK″}; reading uncertain)
- selectivity / background of probe labeling in extracts (active MALT1 [3]): unspecific background labeling of unknown identity at approx. 40 kDa
- detection of endogenous active MALT1-probe complexes (active MALT1 [3]): exclusively detected after stimulation
- effect of titrating probe concentration on labeling (active MALT1 [3]; extracts of stimulated Jurkat T cells): decrease background labeling, while active MALT1 activity stays stable

Compound: FITC-LRSR-AOMK ({FITC}-LRSR-{AOMK}) [probe 5]
- inhibition of MALT1 protease activity in vitro (MALT1): inhibit MALT1
- active MALT1 signal in lymphoma whole cell extracts (active MALT1 [3]; ABC DLBCL cells (HBL1 for probe 6)): not detectable
- selectivity / background of probe labeling in extracts (active MALT1 [3]): MALT1 was the only inducible band
- detection of endogenous active MALT1-probe complexes (active MALT1 [3]): exclusively detected after T cell stimulation
- detection of active MALT1 in primary cells (active MALT1 [3]; extracts of P/I-stimulated PBMCs and human T cells): detected active MALT1
- inhibition of cathepsin B activity in vitro (cathepsin B [5]): abrogated cathepsin B activity even though slightly less efficient
